Assays:
diabetic rats [1] = assay: CIN model, Example 5: INO-1001 alone and with NAC in diabetic rats; assay type: in vivo, rat; conditions: diabetic rats + Iomeprol, NAC 30 mg/kg i.v., INO-1001 10 mg/kg ip, or both, at −30 min
Protocol: (§1) Male Wistar rats (150-200 g; Harlan Nossanr) were housed in a controlled environment and provided with standard rodent chow and water. Diabetes was induced after 12 h of fasting. The animals received a single 60 mg/kg intravenous (i.v.) injection of streptozotocin (Sigma, St. Louis, Mo.) in 10 mM sodium citrate buffer, pH 4.5 (see figure). Control non-diabetic animals were fasted and received citrate buffer alone. After 24 hours, animals with blood glucose levels greater than 250 mg/dl were considered diabetic. The diabetic state was confirmed by evaluating the blood glucose levels. Ten days following the induction of diabetes rats were anesthetized with 90 mg/kg ketamine i.m. and 10 mg/kg xylazine i.m. and were treated with the contrast agent iomeprol (10 mL/kg injected via the lateral tail vein) or with 0.9% normal saline. The contrast agent used was the low osmolar non-ionic monomer iomeprol (Iomeron, 400 mgI mL-1; Bracco SpA, Milan, Italy) with an osmolality of 726±34 mosmol/kg H2O.
GROUP 1: Diabetic rats only+Placebo (i.v.). GROUP 2: Diabetic rats+Iomeprol+Placebo (i.v.) given at −30 min. GROUP 3: Diabetic rats+Iomeprol+NAC (30 mg/kg, i.v.) given at −30 min. GROUP 4: Diabetic rats+Iomeprol+INO-1001 (10 mg/kg, ip) given at −30 min. GROUP 5: Diabetic rats+Iomeprol+NAC (30 mg/kg, i.v.)+INO-1001 (10 mg/kg, ip) given at −30 min.
(§2) Blood samples were collected via the lateral tail vein into S1/3 tubes containing serum gel at 24 hours. The samples were centrifuged (6000 r.p.m. for 3 min) to separate plasma. All plasma samples were analyzed for biochemical parameters within 24 hours after collection. Plasma and urine concentrations of creatinine were measured as indicators of impaired glomerular function. Creatinine clearance was calculated using the following formula (=UV/P), where U refers to Creatinine concentration in urine, V to urine volume/min and P to serum creatinine. Plasma and urine concentrations of NGAL (neutrophil gelatinase associated lipocalin) levels and urine αGST (alpha glutathione S-transferase) and NGAL levels were evaluated.
Protein concentration in urine was determined by Bio-Rad DC Protein Assay (BioRad, Richmond Calif.). The Bio-Rad DC protein assay is a colorimetric assay for protein concentration. The reaction is similar to the well-documented Lowry assay (Lowry et al., Protein measurement with the Folin phenol reagent, J Biol Chem 193, 265-275 (1951). The Bio-Rad DC protein assay requires only a single 15-minute incubation, and absorbance is stable for a least 2 hours. The amount of protein is expressed in mg/ml.

diabetic rats [2] = assay: CIN model, Example 3: M40403 alone and with NAC in diabetic rats; assay type: in vivo, rat; conditions: diabetic rats + Iomeprol, 24 hours; M40403 0.5 mg/kg i.v. alone or + NAC 3 mg/kg i.v., at −30 min
Protocol: as §1, with “12 hours” for “12 h”
as §2, with “gel at 0 and 24 hours.” for “gel at 24 hours.”, “of NGAL levels were” for “of NGAL (neutrophil gelatinase associated lipocalin) levels and urine αGST (alpha glutathione S-transferase) and NGAL levels were”

[3] = Iomeron, 400 mgI mL-1; cited from earlier work

O=c1[nH]cnc2c1ncn2[C@@H]1O[C@H](CO)[C@@H](O)[C@H]1O [INO-1001]
plasma creatinine (diabetic rats [1]; 24 h): significant reductions | plasma NGAL concentration (diabetic rats [1]; 24 hours): significant reductions | total protein concentration in the urine (diabetic rats [1]; 24 hours): significant reductions | urine NGAL concentration (diabetic rats [1]; 24 hours): significant reductions | urine αGST (diabetic rats [1]; 24 hours): significant reductions

[Cl-].[Cl-].[Mn+2].c1cc2nc(c1)CN[C@@H]1CCCC[C@H]1NCCN[C@@H]1CCCC[C@H]1NC2 [Metalloporphyrin M40403]
plasma NGAL concentration (diabetic rats [2]): significant reduction | plasma Na+ (diabetic rats [2]): significant reductions | plasma concentrations of K+ (diabetic rats [2]): significant increase | plasma creatinine (diabetic rats [2]): significant reductions | total protein concentrations in the urine (diabetic rats [2]): significantly reduced | urine NGAL concentration (diabetic rats [2]): significant reduction

CN(C(=O)CO)c1c(I)c(C(=O)NCC(O)CO)c(I)c(C(=O)NCC(O)CO)c1I (stereo not drawn) [iomeprol]
osmolality [3]: 726±34 mosmol/kg H2O

Source: patent US20090257999A1, “Method of preventing contrast-induced nephropathy” (Inotek Pharmaceuticals Corporation, priority 2007, published 2009)
